Results taken from patent publication US20100167397A1, “ENDOCRINE CELL LINES AND METHOD OF USING THE SAME” (KYOWA HAKKO KOGYO CO., LTD., priority 2002, published 2010).

tested on: CRE reporter in GBCRC6; experiment: Constitutive activity of GPCR, Method 1 (GBCRC6 host, Renilla reniformis luciferase, induction ratio with 17β-estradiol); format: cell-based, human; settings: Method 1; GBCRC6 host; activity with 17β-estradiol divided by activity without; control plasmid about 1
Procedure: After the incubation, coelenterazine h (Molecular Proves) (final concentration 250 nmol/L) was added to measure the activity of Renilla reniformis luciferase. For the activity measurement, a Wallac 1420 ARVOsx Multilabel Counter (manufactured by Wallac Berthold Japan) or a VIM camera (Argus-50/2D Luminometer/MP; manufactured by Hamamatsu Photonics) was used.
In each method, the induction ratio of the cells transfected with the control plasmid was about 1. It is judged that the higher the induction ratio of the cells to which a GPCR expression plasmid was transfected, the stronger the constitutive activity of the GPCR.

Molecule	Constitutive Activity (induction ratio)
GPR 6	63-fold
GPR 35	25-fold
GPR 61	12-fold
GPR 92	11-fold
G2A (protein, UniProt Q9UNW8 1-380, looked up) Probable G-protein coupled …: MCPMLLKNGYNGNATPVTTTAPWASLGLSAKTCNNVSFEESRIVLVVVYSAVCTLGVPANCLTAWLALLQVLQGNVLAVYLLCLALCELLYTGTLPLWVIYIRNQHRWTLGLLACKVTAYIFFCNIYVSILFLCCISCDRFVAVVYALESRGRRRRRTAILISACIFILVGIVHYPVFQTEDKETCFDMLQMDSRIAGYYYARFTVGFAIPLSIIAFTNHRIFRSIKQSMGLSAAQKAKVKHSAIAVVVIFLVCFAPYHLVLLVKAAAFSYYRGDRNAMCGLEERLYTASVVFLCLSTVNGVADPIIYVLATDHSRQEVSRIHKGWKEWSMKTDVTRLTHSRDTEELQSPVALADHYTFSRPVHPPGSPCPAKRLIEESC	20-fold

Now from value to molecule:

Constitutive Activity (induction ratio)	Molecule
20-fold	GPCR 25
40-fold	GPR 4
27-fold	GPR 30
12-fold	GPR 62
15-fold	GPR 88
3.6-fold	OGR1
12.7-fold	OGR1S221N

same assay, conditions: method 1 of (2) of Example 22; induction ratio of reporter activity with 17β-estradiol

Molecule	Constitutive Activity
OGR1S221N/D118A: OGR1S221N mutant GPCR with 118th aspartic acid substituted with alanine; SEQ ID NO: 189	56-fold
GPR35D113A: GPR35 mutant GPCR, 113th aspartic acid substituted with alanine; SEQ ID NO: 191 (protein, GPR35D113A) MNGTYNTCGSSDLTWPPAIKLGFYAYLGVLLVLGLLLNSLALWVFCCRMQQWTETRIYMTNLAVADLCLLCTLPFVLHSLRDTSDTPLCQLSQGIYLTNRYMSISLVTAIAVARYVAVRHPLRARGLRSPRQAAAVCAVLWVLVIGSLVARWLLGIQEGGFCFRSTRHNFNSMRFPLLGFYLPLAVVVFCSLKVVTALAQRPPTDVGQAEATRKAARMVWANLLVFVVCFLPLHVGLTVRLAVGWNACALLETIRRALYITSKLSDANCCLDAICYYYMAKEFQEASALAVAPRAKAHKSQDSLCVTLA	97-fold

Results, then the molecule that gave them:

Constitutive Activity	Molecule
32-fold	RE2D124A: RE2 mutant GPCR, 124th aspartic acid substituted with alanine; SEQ ID NO: 190 (protein, RE2D124A) MSLNSSLSCRKELSNLTEEEGGEGGVIITQFIAIIVITIFVCLGNLVIVVTLYKKSYLLTLSNKFVFSLTLSNFLLSVLVLPFVVTSSIRREWIFGVVWCNFSALLYLLISSASMLTLGVIAIARYYAVLYPMVYPMKITGNRAVMALVYIWLHSLIGCLPPLFGWSSVEFDEFKWMCVAAWHREPGYTAFWQIWCALFPFLVMLVCYGFIFRVARVKARKVHCGTVVIVEEDAQRTGRKNSSTSTSSSGSRRNAFQGVVYSANQCKALITILVVLGAFMVTWGPYMVVIASEALWGKSSVSPSLETWATWLSFASAVCHPLIYGLWNKTVRKELLGMCFGDRYYREPFVQRQRTSRLFSISNRITDLGLSPHLTALMAGGQPLGHSSSTGDTGFSCSQDSGNLRAL
35-fold	GPCR25D111A: GPCR25 mutant GPCR, 111th aspartic acid substituted with alanine; SEQ ID NO: 192 (protein, GPCR25D111A) MNSTCIEEQHDLDHYLFPIVYIFVIIVSIPANIGSLCVSFLQPKKESELGIYLFSLSLSDLLYALTLPLWIDYTWNKDNWTFSPALCKGSAFLMYMKFYSSTAFLTCIAVARYLAVVYPLKFFFLRTRRIALMVSLSIWILETIFNAVMLWEDETVVEYCDAEKSNFTLCYDKYPLEKWQINLNLFRTCTGYAIPLVTILICNRKVYQAVRHNKATENKEKKRIIKLLVSITVTFVLCFTPFHVMLLIRCILEHAVNFEDHSNSGKRTYTMYRITVALTSLNCVADPILYCFVTETGRYDMWNILKFCTGRCNTSQRQRKRILSVSTKDTMELEVLE

same assay, conditions: method of (2) of Example 22 utilizing GBCRC6 as a host

Molecule	induction ratio (constitutive activity)
GPR43R217P: mutant where the 217th arginine of GPR43 polypeptide was substituted with proline; SEQ ID NO: 197 (protein, GPR43R217P) MLPDWKSSLILMAYIIIFLTGLPANLLALRAFVGRIRQPQPAPVHILLLSLTLADLLLLLLLPFKIIEAASNFRWYLPKVVCALTSFGFYSSIYCSTWLLAGISIERYLGVAFPVQYKLSRRPLYGVIAALVAWVMSFGHCTIVIIVQYLNTTEQVRSGNEITCYENFTDNQLDVVLPVRLELCLVLFFIPMAVTIFCYWRFVWIMLSQPLVGAQRPRRAVGLAVVTLLNFLVCFGPYNVSHLVGYHQRKSPWWRSIAVVFSSLNASLDPLLFYFSSSVVRRAFGRGLQVLRNQGSSLLGRRGKDTAEGTNEDRGVGQGEGMPSSDFTTE	about 2 fold
GPR43R217PE106D: GPR43R217P mutant where the 106th glutamic acid was substituted with aspartic acid; SEQ ID NO: 198 (protein, GPR43R217P/E106D) MLPDWKSSLILMAYIIIFLTGLPANLLALRAFVGRIRQPQPAPVHILLLSLTLADLLLLLLLPFKIIEAASNFRWYLPKVVCALTSFGFYSSIYCSTWLLAGISIDRYLGVAFPVQYKLSRRPLYGVIAALVAWVMSFGHCTIVIIVQYLNTTEQVRSGNEITCYENFTDNQLDVVLPVRLELCLVLFFIPMAVTIFCYWRFVWIMLSQPLVGAQRPRRAVGLAVVTLLNFLVCFGPYNVSHLVGYHQRKSPWWRSIAVVFSSLNASLDPLLFYFSSSVVRRAFGRGLQVLRNQGSSLLGRRGKDTAEGTNEDRGVGQGEGMPSSDFTTE	about 17 fold
PGMO334E135F: mutant where the 135th glutamic acid of the PGMO334 polypeptide was substituted with phenylalanine; SEQ ID NO: 193 (protein, PGMO334E135F) MSPECARAAGDAPLRSLEQANRTRFPFFSDVKGDHRLVLAAVETTVLVLIFAVSLLGNVCALVLVARRRRRGATACLVLNLFCADLLFISAIPLVLAVRWTEAWLLGPVACHLLFYVMTLSGSVTILTLAAVSLFRMVCIVHLQRGVRGPGRRARAVLLALIWGYSAVAALPLCVFFRVVPQRLPGADQEISICTLIWPTIPGEISWDVSFVTLNFLVPGLVIVISYSKILQITKASRKRLTVSLAYSESHQIRVSQQDFRLFRTLFLLMVSFFIMWSPIIITILLILIQNFKQDLVIWPSLFFWVVAFTFANSALNPILYNMTLCRNEWKKIFCCFWFPEKGAILTDTSVKRNDLSIISG	about 3 fold
PGMO334E135A: mutant where the 135th glutamic acid of PGMO334 polypeptide was substituted with alanine; SEQ ID NO: 195 (protein, PGMO334E135A) MSPECARAAGDAPLRSLEQANRTRFPFFSDVKGDHRLVLAAVETTVLVLIFAVSLLGNVCALVLVARRRRRGATACLVLNLFCADLLFISAIPLVLAVRWTEAWLLGPVACHLLFYVMTLSGSVTILTLAAVSLARMVCIVHLQRGVRGPGRRARAVLLALIWGYSAVAALPLCVFFRVVPQRLPGADQEISICTLIWPTIPGEISWDVSFVTLNFLVPGLVIVISYSKILQITKASRKRLTVSLAYSESHQIRVSQQDFRLFRTLFLLMVSFFIMWSPIIITILLILIQNFKQDLVIWPSLFFWVVAFTFANSALNPILYNMTLCRNEWKKIFCCFWFPEKGAILTDTSVKRNDLSIISG	about 14 fold

Now from value to molecule:

induction ratio (constitutive activity)	Molecule
about 3 fold	PGMO334E135Q: mutant where the 135th glutamic acid of PGMO334 polypeptide was substituted with glutamine; SEQ ID NO: 194 (protein, PGMO334E135Q) MSPECARAAGDAPLRSLEQANRTRFPFFSDVKGDHRLVLAAVETTVLVLIFAVSLLGNVCALVLVARRRRRGATACLVLNLFCADLLFISAIPLVLAVRWTEAWLLGPVACHLLFYVMTLSGSVTILTLAAVSLQRMVCIVHLQRGVRGPGRRARAVLLALIWGYSAVAALPLCVFFRVVPQRLPGADQEISICTLIWPTIPGEISWDVSFVTLNFLVPGLVIVISYSKILQITKASRKRLTVSLAYSESHQIRVSQQDFRLFRTLFLLMVSFFIMWSPIIITILLILIQNFKQDLVIWPSLFFWVVAFTFANSALNPILYNMTLCRNEWKKIFCCFWFPEKGAILTDTSVKRNDLSIISG
about 5 fold	PGMO334D259S: mutant where the 259th aspartic acid of PGMO334 polypeptide was substituted with serine; SEQ ID NO: 196 (protein, PGMO334D259S) MSPECARAAGDAPLRSLEQANRTRFPFFSDVKGDHRLVLAAVETTVLVLIFAVSLLGNVCALVLVARRRRRGATACLVLNLFCADLLFISAIPLVLAVRWTEAWLLGPVACHLLFYVMTLSGSVTILTLAAVSLERMVCIVHLQRGVRGPGRRARAVLLALIWGYSAVAALPLCVFFRVVPQRLPGADQEISICTLIWPTIPGEISWDVSFVTLNFLVPGLVIVISYSKILQITKASRKRLTVSLAYSESHQIRVSQQSFRLFRTLFLLMVSFFIMWSPIIITILLILIQNFKQDLVIWPSLFFWVVAFTFANSALNPILYNMTLCRNEWKKIFCCFWFPEKGAILTDTSVKRNDLSIISG
